Legend:
Type in all cases: cell-based
[1] = tested on: Staphylococcus epidermidis; assay: In vitro suspension kill test, 1 minute contact at 37° C., survivors plated (Example 1); details: diluted with organic load (1:1 with whole milk)
Protocol: (§1) A set of in vitro tests was run on Staphylococcus aureus, Escherichia coli, Streptococcus agalactiae, Streptococcus uberis, Staphylococcus epidermidis, and Pseudomonas aeruginosa. A culture of the microorganism was first prepared according to the following procedure. Six to ten milliliters of trypticase soy broth was inoculated with the organism under consideration from a frozen or refrigerated stock. After incubation for five to seven hours at 37° C., the culture was transferred to a flask containing trypticase soy broth. The culture in the flask was then incubated on a gyratory shaker at approximately 1500 rpm overnight at 37° C. The next day, the culture in the flask is washed once in phosphate buffered saline solution (PBS) and stored at approximately 4° C. until needed.
(§2) To test a specific antimicrobial's efficacy, ten milliliters of the culture was transferred to a 15 milliliter centrifuge tube and centrifuged at approximately 600 to 700 g for approximately five to ten minutes. After decanting the supernatant, ten milliliters of the antimicrobial (or PBS in the negative, or untreated, control) was added, and the centrifuge tube vortexed to suspend the bacteria. In those tests involving “organic loads”, a 1:1 dilution of the antimicrobial with whole milk was made before addition to the cultured microorganism to simulate conditions the product may have to experience in a real life environment, such as on a cow's teat.
(§3) The tube was then placed in a 37° C. water bath for 1 minute. The tube was centrifuged again at approximately 600 to 700 g for approximately five to ten minutes, and the supernatant decanted. The remaining precipitate was then suspended in a quencher solution containing letheen broth, 1% sodium thiosulfate and 0.2 mM CaCl2. The tube was centrifuged at approximately 600 to 700 g for approximately five to ten minutes, decanted and washed a second time in the quencher solution.
(§4) The surviving bacteria suspended in quencher solution were then diluted with PBS and plated on appropriate media, for example, MacConkey for Escherichia coli, Staph 110 for Staphylococcus, and trypticase soy agar with 6% Sheep's blood for Streptococcus. The plates were incubated 24 to 48 hours at 37° C. and counted. The surviving organisms were expressed as colony forming units (CFU)/ml, and compared to the negative control as percent survival.

Pseudomonas aeruginosa = assay: as above; details: diluted with organic load (1:1 with whole milk)
Protocol: as §1, §2, §3, §4

Streptococcus uberis = assay: as above; details: diluted with organic load (1:1 with whole milk)
Protocol: as §1, §2, §3, §4

Streptococcus agalactiae = assay: as above; details: diluted with organic load (1:1 with whole milk)
Protocol: as §1, §2, §3, §4

Escherichia coli [2] = assay: In vitro suspension kill test, 1 minute contact at 37° C., survivors plated (Examples 1, 5); details: 1 minute at 37° C.
Protocol: as §1, with “needed. […]” for “needed.”
(§5) The surviving bacteria suspended in quencher solution were then diluted with PBS and plated on appropriate media, for example, MacConkey for Escherichia coli, Staph 110 for Staphylococcus, and trypticase soy agar with 6% Sheep's blood for Streptococcus. The plates were incubated 24 to 48 hours at 37° C. and counted. The surviving organisms were expressed as colony forming units (CFU)/ml, and compared to the negative control as percent survival. […]

Staphylococcus aureus [3] = assay: In vitro suspension kill test, 1 minute contact at 37° C., survivors plated (Examples 1, 4, 5); details: 1 minute at 37° C.
Protocol: as §1, with “needed. […]” for “needed.”
as §5

Escherichia coli [4] = assay: Excised dairy cow teat dip test (Example 2); details: Escherichia coli on excised cow teats; dipped, drained ten minutes; log mean CFU/ml vs negative control
Protocol: (§6) Another set of in vitro tests were run on Staphylococcus aureus, Escherichia coli, and Streptococcus uberis. A culture of the microorganism was first prepared according to the following procedure. Six to ten milliliters of trypticase soy broth was inoculated with the organism under consideration from a frozen or refrigerated stock. After incubation for five to seven hours at 37° C., the culture was transferred to a flask containing 200 milliliters of trypticase soy broth. The culture in the flask was then incubated on a gyratory shaker at approximately 1500 rpm overnight at 37° C. The next day, the culture in the flask is washed once in PBS or 0.1% protease peptone, and stored at approximately 4° C. until required.
(§7) The tests were run using dairy cow teats which had been obtained from a slaughter house. The teats were cut off at their connection to the udder, cleaned, and all hair was removed by using an open flame. The teats selected for the testing were screened for lesions, cuts, scars or other abnormalities. The teats were stored until needed in plastic bags in ice at a temperature below freezing. […]
(§8) Countable dilutions were plated on appropriate media, and incubated from 24 to 48 hours at 37° C. The colonies were counted macroscopically with the aid of fluorescent light. Non-typical colonies were not counted. […]

Staphylococcus aureus [5] = assay: Excised dairy cow teat dip test (Example 2); details: Staphylococcus aureus on excised cow teats; dipped, drained ten minutes; log mean CFU/ml vs negative control
Protocol: as §6, §7, §8

[6] = diluted with organic load (1:1 with whole milk)

For [O][Cl+][O-] [chlorine dioxide], the “Percent Survival” value [1] was 5%, the “Percent Survival” value (Pseudomonas aeruginosa) was 0% and the “Percent Survival” value (Streptococcus uberis) was 5.19%. The “Percent Survival” value (Streptococcus agalactiae) was 0%, the “Percent Survival” value (Escherichia coli [2]; [6]) was 0% and the “Percent Survival” value (Escherichia coli [2]; undiluted antimicrobial) was 0%. For the same compound, the “Percent Survival” value (Staphylococcus aureus [3]; [6]) was 16.96%, the “Percent Survival” value (Staphylococcus aureus [3]; undiluted antimicrobial, CFU/ml compared to negative control) was 0% and the “Percent Log Reduction” value (Escherichia coli [4]) was 22%. For the same compound, the “Percent Log Reduction” value (Staphylococcus aureus [5]) was 33.90%.
